{"source": "BindingDB's records for doi:10.1016/j.bmcl.2021.128215", "about": "(Shenyang Pharmaceutical University, 2021)", "data": [{"target": "Apoptosis regulator Bcl-2 (Homo sapiens) (UniProt P10415)", "sequence (P10415 whole entry, looked up)": "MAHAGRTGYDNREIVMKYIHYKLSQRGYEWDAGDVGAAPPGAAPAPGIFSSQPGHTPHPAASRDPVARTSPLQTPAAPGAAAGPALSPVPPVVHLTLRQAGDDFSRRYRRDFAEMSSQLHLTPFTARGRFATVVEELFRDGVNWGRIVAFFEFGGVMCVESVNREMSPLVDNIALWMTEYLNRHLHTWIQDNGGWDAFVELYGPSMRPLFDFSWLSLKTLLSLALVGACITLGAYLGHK", "test": "Binding affinity to Bcl-2 (unknown origin) by fluorescence polarization competition assay", "units": {"Ki": "µM"}, "values": [{"smiles": "O=C(O)c1ccccc1-c1cccc2c1ccn2CCCOc1cccc2ccccc12", "Ki": 4.53}, {"smiles": "Cc1cccc(-c2cn(CCCOc3cccc4ccccc34)c3cccc(-c4ccccc4C(=O)O)c23)c1", "Ki": 0.56}, {"smiles": "O=C(O)c1ccccc1-c1cccc2c1c(-c1cccc(C(F)(F)F)c1)cn2CCCOc1cccc2ccccc12", "Ki": 2.55}, {"smiles": "O=C(O)c1ccc(Cl)cc1-c1cccc2c1ccn2CCCOc1cccc2ccccc12", "Ki": 0.49}, {"smiles": "Cc1cccc(-c2cn(CCOc3cccc4ccccc34)c3cccc(-c4ccccc4C(=O)O)c23)c1", "Ki": 0.36}, {"smiles": "O=C(O)c1ccccc1-c1cccc2c1c(-c1cccc(C(F)(F)F)c1)cn2CCOc1cccc2ccccc12", "Ki": 0.25}, {"smiles": "O=C(O)c1ccccc1-c1cccc2c1c(-c1cccc(Cl)c1)cn2CCOc1cccc2ccccc12", "Ki": 3.21}, {"smiles": "Cc1ccccc1-c1cn(CCOc2cccc3ccccc23)c2cccc(-c3ccccc3C(=O)O)c12", "Ki": 0.25}, {"smiles": "Cc1ccc(-c2cn(CCOc3cccc4ccccc34)c3cccc(-c4ccccc4C(=O)O)c23)cc1", "Ki": 0.87}, {"smiles": "CCc1ccccc1-c1cn(CCOc2cccc3ccccc23)c2cccc(-c3ccccc3C(=O)O)c12", "Ki": 0.3}, {"smiles": "CC(C)c1ccccc1-c1cn(CCOc2cccc3ccccc23)c2cccc(-c3ccccc3C(=O)O)c12", "Ki": 1.74}, {"smiles": "COc1ccccc1-c1cn(CCOc2cccc3ccccc23)c2cccc(-c3ccccc3C(=O)O)c12", "Ki": 0.82}, {"smiles": "Cc1cccc(-c2cn(CCOc3cccc4ccccc34)c3cccc(-c4ccccc4C(=O)O)c23)c1C", "Ki": 1.3}, {"smiles": "Cc1ccc(-c2cn(Cc3cccc4ccccc34)c3cccc(-c4ccccc4C(=O)O)c23)cc1", "Ki": 0.8}, {"smiles": "Cc1cccc(-c2cn(Cc3cccc4ccccc34)c3cccc(-c4ccccc4C(=O)O)c23)c1", "Ki": 1.8}, {"smiles": "Cc1ccccc1-c1cn(Cc2cccc3ccccc23)c2cccc(-c3ccccc3C(=O)O)c12", "Ki": 0.66}, {"smiles": "COc1ccccc1-c1cn(Cc2cccc3ccccc23)c2cccc(-c3ccccc3C(=O)O)c12", "Ki": 1.28}, {"smiles": "O=C(O)c1ccccc1-c1cccc2c1c(-c1cccc(Cl)c1)cn2Cc1cccc2ccccc12", "Ki": 0.1}, {"smiles": "O=C(O)c1ccccc1-c1cccc2c1c(-c1cccc(C(F)(F)F)c1)cn2Cc1cccc2ccccc12", "Ki": 1.08}, {"smiles": "COc1cccc(-c2cn(Cc3cccc4ccccc34)c3cccc(-c4ccccc4C(=O)O)c23)c1", "Ki": 0.53}, {"smiles": "O=C(O)c1ccccc1-c1cccc2c1c(-c1ccccc1)cn2Cc1cccc2ccccc12", "Ki": 0.82}]}]}
